Reference: patent publication US6544727B1, “Methods and devices for the removal of psoralens from blood products” (Cerus Corporation, priority 1995, dated 2003)
“Also recorded” adds a separate entry of the source. Read-outs that look alike come from different tables or passages of the source.

Legend:
HIV-1 = conditions: for HIV Log Kill: 1 minute irradiation
[1] = system: Salmonella typhimurium tester strains; test: Ames Salmonella dark mutagenicity test, overall assessment; assay type: cell-based; conditions: two-fold or greater increase in revertants above background and dose dependence
Procedure: A brief description for each procedure is given here. […] TA97a, TA98, TA1537 and TA1538 are frameshift tester strains. TA100 and TA102 are base-substitution tester strains.
This served as the background controls.
For all experiments, the pre-incubation procedure was used.

[2] = system: Salmonella tester strain TA98; test: Ames test, strain TA98
Procedure: In this example the compounds of the present invention are tested for their dark mutagenicity using an Ames assay. The procedures used for the Salmonella mutagenicity test as described in detail by Maron and Ames were followed exactly. Maron, D. M. and B. N. Ames, Mutation Research 113: 173 ( 1983). A brief description for each procedure is given here. The tester strains TA97a, TA98, TA100, TA102, TA1537 and TA1538 were obtained from Dr. Ames. TA97a, TA98, TA1537 and TA1538 are frameshift tester strains. TA100 and TA102 are base-substitution tester strains. Upon receipt each strain was cultured under a variety of conditions to confirm the genotypes specific to the strains.
The first tests done with the strains were to determine the range of spontaneous reversion for each of the strains. With each mutagenicity experiment the spontaneous reversion of the tester strains to histidine independence was measured and expressed as the number of spontaneous revertants per plate. This served as the background controls.
For all experiments, the pre-incubation procedure was used. In this procedure one vial of each tester strain was thawed and 20 μL of this culture was added to 6 mL of Oxoid Nutrient Broth #2. This solution was allowed to shake for 10 hours at 37° C. In the pre-incubation procedure, 0.1 mL of this overnight culture was added to each of the required number of sterile test tubes. To half of the tubes 0.5 mL of a 10% S-9 solution containing Aroclor 1254 induced rat liver extract (Molecular Toxicology Inc., Annapolis, Md.), and MgCl2, KCl, glucose-6-phosphate, NADP, and sodium phosphate buffer (Sigma, St. Louis, Mo.) were added. To the other half of the tubes 0.5 mL of 0.2M sodium phospate buffer, pH 7.4, was used in place of the S-9 mixture (the—S9samples). […] The 0.7 mL mixture was vortexed and then pre-incubated while shaking for 20 minutes at 37° C. After shaking, 2 mL of molten top agar supplemented with histidine and biotin were added to the 0.7 mL mixture and immediately poured onto a minimal glucose agar plate (volume of base agar was 20 mL). The top agar was allowed 30 minutes to solidify and then the plates were inverted and incubated for 44 hours at 37° C. After incubation the number of revertant colonies on each plate were counted. […] (“n” represents the number of replicates performed for each data point.)

R17 bacteriophage = R17 bacteriophage inactivation assay, varying compound concentration; assay type: cell-based; conditions: for R17 inactivation efficiency compared with AMT or 8-MOP (in words): varying concentration, Tables 6-9, FIGS. 6-10
Method in brief: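 R17 phage (10^9/mL in DMEM with 15% FBS) mixed with compound at 4–320 μM and irradiated 1–10 min. Surviving phage titred by serial dilution and plaque assay on Hfr 3000 bacteria after overnight incubation at 37 °C; controls were untreated phage, UV without compound, and compound without irradiation.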

[3] = 16 μM, starting titer approximately 5 logs (Table 10)
[4] = 32 μM, starting titer approximately 5 logs (Table 10)
[5] = 64 μM, starting titer approximately 5 logs (Table 10)
[6] = 8 μM, starting titer approx. 7.2 logs, 1 minute irradiation (Table 7)
[7] = 16 μM, starting titer approx. 7.2 logs, 1 minute irradiation (Table 7)
[8] = 32 μM, starting titer approx. 7.2 logs, 1 minute irradiation (Table 7)
[9] = 16 μM, starting titer approximately 5.4 logs (Table 11)
[10] = 32 μM, starting titer approximately 5.4 logs (Table 11)
[11] = 64 μM, starting titer approximately 5.4 logs (Table 11)
[12] = 16 μM, starting titer approx. 7.1 logs, 1 minute irradiation (Table 9)
[13] = 16 μM, starting titer approx. 7.1 logs, 1 minute irradiation = 1.2 J/cm^2 (Table 8)
[14] = 32 μM, starting titer approx. 7.1 logs, 1 minute irradiation = 1.2 J/cm^2 (Table 8)

SMILES	HIV Log Kill (HIV-1; [3]) [log]	HIV Log Kill (HIV-1; [4]) [log]	HIV Log Kill (HIV-1; [5]) [log]	mutagenic response in the Ames assay (in words) [1]	revertant colonies per plate ([2]; TA98 + S9, 10 μg/plate)	revertant colonies per plate ([2]; TA98 + S9, 50 μg/plate)	revertant colonies per plate ([2]; TA98 + S9, 100 μg/plate)	revertant colonies per plate ([2]; TA98 + S9, 250 μg/plate)	revertant colonies per plate ([2]; TA98 − S9, 10 μg/plate)	revertant colonies per plate ([2]; TA98 − S9, 50 μg/plate)	revertant colonies per plate ([2]; TA98 − S9, 100 μg/plate)	revertant colonies per plate ([2]; TA98 − S9, 250 μg/plate)	R17 Log Kill (R17 bacteriophage; [6]) [log]	R17 Log Kill (R17 bacteriophage; [7]) [log]	R17 Log Kill (R17 bacteriophage; [8]) [log]	R17 inactivation efficiency compared with AMT or 8-MOP (in words) (R17 bacteriophage)	HIV Log Kill (HIV-1; [9]) [log]	HIV Log Kill (HIV-1; [10]) [log]	HIV Log Kill (HIV-1; [11]) [log]	R17 Log Kill (R17 bacteriophage; [12]) [log]	further results
Cc1oc2c(C)c3oc(=O)cc(C)c3cc2c1COCCN [Compound 2, 4′-(4-amino-2-oxa)butyl-4,5′,8-trimethylpsoralen]	1.4	3.8	>4.5	weak frameshift mutagenicity in the presence of S9 in TA98 and TA1537	24	35	53	69	28	52	39	29	3.8	>6.2	>6.2	significantly higher inactivation efficiency than does AMT					HIV inactivation compared with AMT (in words) (HIV-1; cell-free HIV, 64 μM of compound or higher for compounds 2 and 3): significantly more active than AMT; revertant colonies per plate ([2]; TA98 + S9, 500 μg/plate): 63; revertant colonies per plate ([2]; TA98 − S9, 500 μg/plate): 6
Cc1oc2c(C)c3oc(=O)cc(C)c3cc2c1CNCCCCN [Compound 6, 4′-(6-amino-2-aza)hexyl-4,5′,8-trimethylpsoralen]	2.0	3.1	>3.8	no base substitution mutagenicity; also recorded: frameshift response in TA98 in the presence of S9 at concentrations of 250 μg/plate and above												significantly higher inactivation efficiency than does AMT	2.1	3.2	>2.8	>6	R17 Log Kill (R17 bacteriophage; 8 μM, starting titer approx. 7.1 logs, 1 minute irradiation (Table 9)): >6 log; R17 Log Kill (R17 bacteriophage; [13]): >6.1 log; R17 Log Kill (R17 bacteriophage; [14]): >6.1 log; R17 Log Kill (R17 bacteriophage; 64 μM, starting titer approx. 7.1 logs, 1 minute irradiation = 1.2 J/cm^2 (Table 8)): >6.1 log
Cc1cc(=O)oc2c(C)c3oc(COCCN)c(C)c3cc12 [Compound 18, 5′-(4-amino-2-oxa)butyl-4,4′,8-trimethylpsoralen]				only a weak response at high concentrations in the presence of S9	8	6	26		21	303	390						1.0	1.0	3.1		revertant colonies per plate ([2]; TA98 + S9, 200 μg/plate): 42; revertant colonies per plate ([2]; TA98 − S9, 200 μg/plate): 225
Cc1oc2c(C)c3oc(=O)cc(C)c3cc2c1CN [AMT, 4′-Aminomethyl-4,5′,8-trimethylpsoralen, reference compound]	1.4			showed frameshift mutagenicity at between 5 and 10 μg/plate in TA97a and TA98, at 5 μg/plate in TA1537 and at 1 μg/plate in TA1538; also recorded: no significant base-substitution mutations	403	620	745	933	20	69	114	112	2.7	4.6	>6.2					>6	revertant colonies per plate ([2]; TA98 + S9, 0.1 μg/plate): 1; revertant colonies per plate ([2]; TA98 + S9, 0.5 μg/plate): 3; revertant colonies per plate ([2]; TA98 + S9, 1 μg/plate): 21; revertant colonies per plate ([2]; TA98 + S9, 5 μg/plate): 232; revertant colonies per plate ([2]; TA98 − S9, 0.1 μg/plate): 3; revertant colonies per plate ([2]; TA98 − S9, 0.5 μg/plate): 5; revertant colonies per plate ([2]; TA98 − S9, 1 μg/plate): 5; revertant colonies per plate ([2]; TA98 − S9, 5 μg/plate): 16; R17 Log Kill (R17 bacteriophage; [13]): 4.5 log; R17 Log Kill (R17 bacteriophage; 32 μM, starting titer approx. 7.1 logs, 1 minute irradiation (Table 9)): >6 log; R17 Log Kill (R17 bacteriophage; [14]): 4.8 log; R17 log kill (32 μM) (R17 bacteriophage; 32 μM, starting titer approx. 7.5 logs, 1 minute irradiation): >6.7 log
